Data: patent publication US20070037253A1, “Methods and compositions for treatment of arthritis and cancer” (priority 2003, published 2007)
“Also recorded” adds a separate entry of the source. Where a SMILES comes first, the peptide text is derived from it.

Columns and labels:
collagenase I (MMP-1) = experiment: Collagenase activity assay, collagen thin film (collagen type II substrate); assay type: biochemical; details: collagen thin film method, FIG. 2; read-out: IC50 (mean±SD), collagenase I (MMP-1)
Protocol: Collagenase activity was assayed by collagen thin film method using collagen type II as substrate. IC50 values were graphically determined from the inhibition curves, constructed on the basis of the in vitro results of collagenase assays. Results are the mean±SD of 3 separate experiments done in triplicates. (•), P-NT.II; (□), PIP [59-67] dimer; (Δ), PIP [59-67} monomer; (∇), LY 315920.
Collagenase activity assay: Using collagen thin film as the substrate, a quantitative method was established to measure the enzymatic activity of the MMPs (principally collagenase). Collagen type II (Sigma) solution (4 μL, 3 mg/mL in 0.012 N HCl) was added to each well of 96-well plates and precipitated by slowly increasing the pH with 4 μL of H2O and 8 μL of 0.012 N NaOH. The plate was dried at 23° C. for 24 hr, washed with H2O, and dried again at 23° C., resulting in a thin film containing 12 μg of collagen that was tightly bound to the bottom of the wells. Enzymatic reactions of the collagenase I (with and without peptide inhibitors) against the collagen films were carried out in quadruplicate at 24° C. for 16 h. The digested portion of the film was washed away, while the undigested portion was fixed for 3 h with 0.1% Coomassie brilliant blue R in 10% acetic acid and 45% methanol, and the wells washed and dried.

sPLA2 gene transcript = experiment: QRT-PCR relative mRNA expression in IL-1β-stimulated rabbit synovial fibroblasts; assay type: cell-based
Excerpt: (§1) FIG. 5 is a view of the effect of peptide on the relative expression of MMP and sPLA2 genes. QRT-PCR was used for assessing relative mRNA expression levels of IL-1β-stimulated rabbit synovial fibroblast cells in the presence and absence of the candidate lead peptide PIP [59-67] dimer. The amount of each mRNA was obtained by quantitative RT-PCR. The relative levels of gene expression were normalized to the housekeeping gene (GAPDH). […] Values are expressed as ±S.E.
(§2) RNA isolation of cultured FLSCs: FLSCs were grown to 80% confluence on 12-well culture dishes and starved in a serum-free medium with 5 μM PIP [59-67] dimer for 2 h. The cells were then stimulated with 5 ng/mL IL-1β (Recombinant human, Chemicon, USA.) for 24 h, washed with cold PBS and total RNA isolated from peptide-treated (n=3) and untreated (n=3) FLSCs using RNeasy® mini kit. The RNA samples were subsequently treated with RNase-free Dnase-I at room temperature for 20 min and stored at −80° C. until use. The quality and quantity of extracted RNA was determined by spectrophotometry (Bio-Rad, USA). All RNA samples used for QRT-PCR experiments were of highest purity with A260/A280 ratios of 1.9-2.1. The integrity and relative contamination with residual genomic DNA was assessed by 1% denaturing agarose gel electrophoresis.
(§3) Quantitative Real Time RT-PCR (LightCycler): Quantitative fluorescence-based real-time PCR was carried out according to the manufacturer's instructions using the LightCycler system with LightCycler FastStart DNA Master^PLUS SYBR Green I kit (Roche Diagnostics, Germany) as an independent method for assessing relative gene expression. Reverse Transcription (RT) of RNA and QRT-PCR were performed as follows: single stranded cDNA was generated from 3 μg of total RNA, 200 μM nucleotides, 500 units Superscript II reverse transcriptase (Invitrogen) and 1.5 μM oligo(dT)15 primers in 50 μL reactions. Reverse transcription was stopped after 1 hr by heating to 95° C. for 5 min. The primers were designed by Primer3 software: http://bioinformatics.weizmann.ac.il/cgi-bin/primer/primer3.cgi and subsequently checked for specificity using BLAST: http://www.ncbi.nlm.nih.gov/genome/seq/HsBlast.htmL. All primers and probes were synthesized by 1st BASE Pvt. Ltd., Singapore. The expression of GAPDH was used as an internal calibrator for equal RNA loading and to normalize relative expression data for all other genes analyzed. The copy ratio of each analyzed cDNA was determined as the mean of 3 experiments. The real-time quantitative RT-PCR data were quantified using relative quantification (2^−ΔΔCT) method as described [Livak, K. J, and Schmittgen, T. D. (2001) Analysis of relative gene expression data using real-time quantitative PCR and the 2(-Delta Delta C(T)) method.

MMP-2 gene transcript = experiment: as above; assay type: cell-based
Excerpt: as §1, §2, §3

TIMP-2 gene = experiment: as above; assay type: cell-based; details: co-treatment with peptide, IL-1β-induced, normalized to GAPDH
Excerpt: as §1, §2, §3

[1] = target: T1, MMP-1, secreted from IL-1 β-stimulated rabbit synovial fibroblasts (Oryctolagus cuniculus, UniProt P13943); experiment: Secreted MMP-1 activity of IL-1β-stimulated rabbit synovial fibroblasts; assay type: cell-based
T1 construct: endogenous in cells; host or cells: HIG-82 rabbit fibroblast-like synoviocytes (ATCC CRL-1832)
T1 sequence (P13943 99-468): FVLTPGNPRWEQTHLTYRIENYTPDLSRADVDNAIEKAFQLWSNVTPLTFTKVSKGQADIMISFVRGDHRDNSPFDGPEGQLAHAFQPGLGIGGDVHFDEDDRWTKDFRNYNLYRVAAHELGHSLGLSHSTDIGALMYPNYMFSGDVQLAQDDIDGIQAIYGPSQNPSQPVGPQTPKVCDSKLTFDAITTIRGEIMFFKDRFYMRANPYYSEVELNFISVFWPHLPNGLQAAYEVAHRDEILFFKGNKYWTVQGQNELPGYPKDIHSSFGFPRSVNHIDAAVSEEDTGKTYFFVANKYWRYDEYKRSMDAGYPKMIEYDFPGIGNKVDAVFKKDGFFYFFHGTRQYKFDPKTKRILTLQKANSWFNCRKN
Protocol: FLSC culture and inhibition of extracellular MMP activity: All experiments were performed on HIG-82 rabbit fibroblast-like synoviocytes (FLSCs) obtained from American Type Culture Collection (Manassas, Va.; catalogue No. CRL-1832). FLSCs were grown in Ham's F-12 medium containing 10% fetal bovine serum (FBS) and 1% penicillin/streptomycin, as recommended by the supplier. For experimental purposes, FLSCs were seeded into 12-well plates, grown to near confluence, and then serum starved (Ham's F-12 without FBS or penicillin/streptomycin) for 16 h. After serum starvation of FLSCs, supernatants were removed and replaced with fresh Ham's F-12 medium for 60 min at 37° C./5% CO2 before incubation for 2 h with various concentrations (1-10 μM) of test inhibitor peptides: P-NT.II, PIP [59-67] monomer and dimer. FLSCs were then stimulated for 24 h with IL-1β (10 ng/mL), and the supernatants concentrated by centrifugation in Centricon centrifugal filter devices (M.W. cutoff 30,000) for 35 min at 5000 rpm at 4° C. After activation with APMA (1 mM final concentration), the samples were measured for MMP-1 activity using BIOMOL AK-404 QuantiZyme Assay system, and for MMP-2 and -9 activities by gelatin zymography.

[2] = 5 μM peptide, IL-1β-induced, normalized to GAPDH
[3] = IL-1β-stimulated rabbit synovial fibroblasts in culture

CC[C@H](C)[C@H](NC(=O)[C@H](CC(=O)O)NC(=O)[C@@H](N)C(C)C)C(=O)N[C@@H](Cc1c[nH]cn1)C(=O)N[C@H](C(=O)N[C@@H](Cc1c[nH]c2ccccc12)C(=O)N[C@@H](CC(=O)O)C(=O)NCC(=O)N[C@H](C(=O)N[C@H](C(=O)N[C@@H](CC(=O)O)C(=O)N[C@H](C(=O)N[C@@H](Cc1c[nH]cn1)C(=O)N[C@H](C(=O)N[C@@H](Cc1c[nH]c2ccccc12)C(=O)N[C@@H](CC(=O)O)C(=O)NCC(=O)N[C@H](C(=O)O)C(C)C)C(C)C)[C@@H](C)CC)C(C)C)C(C)C)C(C)C [PIP [59-67] dimer] (H-VDIHVWDGVVDIHVWDGV-OH; N-terminus and C-terminus assumed)
IC50 (collagenase I (MMP-1)): 7.75 ± 1.11 µM | sPLA2 mRNA expression level (sPLA2 gene transcript; [2]): significantly inhibited; also recorded: significantly suppressed | decrease of sPLA2 mRNA expression (sPLA2 gene transcript; [3]): > 1 fold | MMP-2 mRNA expression level (MMP-2 gene transcript; [2]): significantly inhibited; also recorded: significantly suppressed | decrease of MMP-2 mRNA expression (MMP-2 gene transcript; [3]): > 1 fold | TIMP-2 gene expression (TIMP-2 gene): significantly inhibited | enzyme activity of secreted MMP-1 [1]: markedly inhibited
